Measurements as given in PubChem BioAssay AID1963844 (Molecular Pharmacology Branch, DTP, NCI, 2024).

System: 422866-222-R5-J1-PDC complex spheroid viability
Test: Anticancer human tumor 422866-222-R5-J1-PDC patient-derived pancreatic adenocarcinoma cell line growth inhibition [POLQ]
Conditions: for IC50: curve of first compound; for viability, T/C: stronger effect = lower value
Procedure, shortened: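 PDC + HUVEC + MSC complex spheroids; POLQ inhibitors ± partner drugs; top conc. at/near clinical Cmax, else 10 microM (SN-38 1 microM), half-log dilutions; 37 degrees C, 5% CO2.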

[1] = second compound 0.0316 µM, first compound 0.0316 µM
[2] = second compound 0.0316 µM, first compound 0.1 µM
[3] = second compound 0.0316 µM, first compound 0.316 µM
[4] = second compound 0.0316 µM, first compound 1 µM
[5] = second compound 0.0316 µM, first compound 3.16 µM
[6] = second compound 0.0316 µM, first compound 10 µM
[7] = second compound 0.1 µM, first compound 0.0316 µM
[8] = second compound 0.1 µM, first compound 0.1 µM
[9] = second compound 0.1 µM, first compound 0.316 µM
[10] = second compound 0.1 µM, first compound 1 µM
[11] = second compound 0.1 µM, first compound 3.16 µM
[12] = second compound 0.1 µM, first compound 10 µM
[13] = second compound 0.316 µM, first compound 0.0316 µM
[14] = second compound 0.316 µM, first compound 0.1 µM
[15] = second compound 0.316 µM, first compound 0.316 µM
[16] = second compound 0.316 µM, first compound 1 µM
[17] = second compound 0.316 µM, first compound 3.16 µM
[18] = second compound 0.316 µM, first compound 10 µM
[19] = second compound 1 µM, first compound 0.0316 µM
[20] = second compound 1 µM, first compound 0.1 µM
[21] = second compound 1 µM, first compound 0.316 µM
[22] = second compound 1 µM, first compound 1 µM
[23] = second compound 1 µM, first compound 3.16 µM
[24] = second compound 1 µM, first compound 10 µM
[25] = second compound 3.16 µM, first compound 0.0316 µM
[26] = second compound 3.16 µM, first compound 0.1 µM
[27] = second compound 3.16 µM, first compound 0.316 µM
[28] = second compound 3.16 µM, first compound 1 µM
[29] = second compound 3.16 µM, first compound 3.16 µM
[30] = second compound 3.16 µM, first compound 10 µM
[31] = second compound 10 µM, first compound 0.0316 µM
[32] = second compound 10 µM, first compound 0.1 µM
[33] = second compound 10 µM, first compound 0.316 µM
[34] = second compound 10 µM, first compound 1 µM
[35] = second compound 10 µM, first compound 3.16 µM
[36] = second compound 10 µM, first compound 10 µM
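Note: spheroids exposed to compounds for one week before readout.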
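Throughout, for viability, T/C: percent of DMSO vehicle wells luminescence so 100% = untreated viability.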

CC1COCCN1c1cc(-c2ccnn2C)c2ccnc(-c3ccn[nH]3)c2n1 (stereo unspecified) + COC1C(OC(N)=O)C(O)C(Oc2ccc3c(O)c(NC(=O)c4ccc(O)c(CC=C(C)C)c4)c(=O)oc3c2C)OC1(C)C
IC50 (second compound 0.0316 µM): > 10 µM
IC50 (second compound 0.1 µM): > 10 µM
IC50 (second compound 0.316 µM): > 10 µM
IC50 (second compound 1 µM): > 10 µM
IC50 (second compound 3.16 µM): > 10 µM
IC50 (second compound 10 µM): > 10 µM
viability, T/C [1]: 87.7%
viability, T/C [2]: 62%
viability, T/C [3]: 42.2%
viability, T/C [4]: 40%
viability, T/C [5]: 85.1%
viability, T/C [6]: 67.3%
viability, T/C [7]: 90.1%
viability, T/C [8]: 52.9%
viability, T/C [9]: 39.8%
viability, T/C [10]: 46.1%
viability, T/C [11]: 87.3%
viability, T/C [12]: 79.7%
viability, T/C [13]: 96.5%
viability, T/C [14]: 51.9%
viability, T/C [15]: 35.3%
viability, T/C [16]: 39%
viability, T/C [17]: 88.5%
viability, T/C [18]: 77%
viability, T/C [19]: 77.5%
viability, T/C [20]: 58.1%
viability, T/C [21]: 43.3%
viability, T/C [22]: 34.5%
viability, T/C [23]: 77.9%
viability, T/C [24]: 63.5%
viability, T/C [25]: 82.6%
viability, T/C [26]: 64.6%
viability, T/C [27]: 39.9%
viability, T/C [28]: 32%
viability, T/C [29]: 88.1%
viability, T/C [30]: 78.4%
viability, T/C [31]: 82.7%
viability, T/C [32]: 55.2%
viability, T/C [33]: 46.2%
viability, T/C [34]: 33.2%
viability, T/C [35]: 81.1%
viability, T/C [36]: 71.7%

CC1COCCN1c1cc(C2(S(C)(=N)=O)CC2)nc(-c2ccnc3[nH]ccc23)n1 (stereo unspecified) + COC1C(OC(N)=O)C(O)C(Oc2ccc3c(O)c(NC(=O)c4ccc(O)c(CC=C(C)C)c4)c(=O)oc3c2C)OC1(C)C
IC50 (second compound 0.0316 µM): 2.67 µM
IC50 (second compound 0.1 µM): 2.91 µM
IC50 (second compound 0.316 µM): 2.83 µM
IC50 (second compound 1 µM): 2.94 µM
IC50 (second compound 3.16 µM): 2.56 µM
IC50 (second compound 10 µM): 4.12 µM
viability, T/C [1]: 102%
viability, T/C [2]: 111%
viability, T/C [3]: 88.4%
viability, T/C [4]: 75.6%
viability, T/C [5]: 43.9%
viability, T/C [6]: 34.1%
viability, T/C [7]: 104%
viability, T/C [8]: 103%
viability, T/C [9]: 91.6%
viability, T/C [10]: 75.4%
viability, T/C [11]: 46.6%
viability, T/C [12]: 34.8%
viability, T/C [13]: 95.8%
viability, T/C [14]: 91%
viability, T/C [15]: 92.5%
viability, T/C [16]: 71.8%
viability, T/C [17]: 48%
viability, T/C [18]: 44.1%
viability, T/C [19]: 91.3%
viability, T/C [20]: 97.7%
viability, T/C [21]: 101%
viability, T/C [22]: 69.4%
viability, T/C [23]: 54.9%
viability, T/C [24]: 39.8%
viability, T/C [25]: 107%
viability, T/C [26]: 99%
viability, T/C [27]: 104%
viability, T/C [28]: 77.7%
viability, T/C [29]: 44.4%
viability, T/C [30]: 39.8%
viability, T/C [31]: 97.1%
viability, T/C [32]: 99.5%
viability, T/C [33]: 112%
viability, T/C [34]: 75.5%
viability, T/C [35]: 58.7%
viability, T/C [36]: 33%

CCCS(=O)(=O)Nc1ccc(F)c(C(=O)c2c[nH]c3ncc(-c4ccc(Cl)cc4)cc23)c1F + COC1C(OC(N)=O)C(O)C(Oc2ccc3c(O)c(NC(=O)c4ccc(O)c(CC=C(C)C)c4)c(=O)oc3c2C)OC1(C)C
IC50 (second compound 0.0316 µM): > 10 µM
IC50 (second compound 0.1 µM): > 10 µM
IC50 (second compound 0.316 µM): > 10 µM
IC50 (second compound 1 µM): > 10 µM
IC50 (second compound 3.16 µM): > 10 µM
IC50 (second compound 10 µM): > 10 µM
viability, T/C [1]: 96.1%
viability, T/C [2]: 129%
viability, T/C [3]: 132%
viability, T/C [4]: 162%
viability, T/C [5]: 236%
viability, T/C [6]: 99%
viability, T/C [7]: 119%
viability, T/C [8]: 118%
viability, T/C [9]: 143%
viability, T/C [10]: 149%
viability, T/C [11]: 198%
viability, T/C [12]: 86.6%
viability, T/C [13]: 98.2%
viability, T/C [14]: 97.8%
viability, T/C [15]: 129%
viability, T/C [16]: 177%
viability, T/C [17]: 173%
viability, T/C [18]: 107%
viability, T/C [19]: 101%
viability, T/C [20]: 114%
viability, T/C [21]: 129%
viability, T/C [22]: 167%
viability, T/C [23]: 217%
viability, T/C [24]: 90.6%
viability, T/C [25]: 101%
viability, T/C [26]: 115%
viability, T/C [27]: 129%
viability, T/C [28]: 173%
viability, T/C [29]: 195%
viability, T/C [30]: 111%
viability, T/C [31]: 93.9%
viability, T/C [32]: 121%
viability, T/C [33]: 145%
viability, T/C [34]: 161%
viability, T/C [35]: 198%
viability, T/C [36]: 93.4%
